Structures can show the parent of a compound that is named as a salt.
Legend:
metal-free Aβ40/Aβ42 = metal-free Aβ40/Aβ42 (Homo sapiens, UniProt P05067); design: method as in PMID 26575890; settings: cited from earlier work
Solubility = format: physicochemical; settings: water; HCl salt

Sequence of metal-free Aβ40/Aβ42 (P05067 672-711 limits assumed): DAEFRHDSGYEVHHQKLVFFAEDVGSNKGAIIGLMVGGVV

SMILES	Interaction with Aβ and redirection of self-assembly (metal-free Aβ40/Aβ42)	solubility (Solubility)
CN(C)c1ccc(N)cc1 [DMPD, N,N-dimethyl-p-phenylenediamine]	interact with both metal-free Aβ and metal–Aβ and redirect their self-assembly routes to form off-pathway aggregates	
Nc1ccc(NCc2ccccn2)cc1 [HCl salt of 1, N^1-(pyridin-2-ylmethyl)benzene-1,4-diamine]		~800 mg/mL

— PMC5065625, “Structure-mechanism-based engineering of chemical regulators targeting distinct pathological factors in Alzheimer's disease” (Nature Communications, 2016)
